In patent US8722867B2, “Gene therapy vectors and cytosine deaminases” (priority 2008, dated 2014):

Tested on: TU-2449 tumors
Assay: HPLC analysis of 5-FC and 5-FU in excised TU-2449 tumors
Assay type: in vivo, mice
Details: Groups 2 and 3: PBS instead of vector, 5-FC 250 or 500 mg/kg IP
Description: The study consisted of 6 groups of female mice (see Table below). All groups underwent intracranial administration into the right striatum of 1E4 TU-2449 cells administered/mouse on Day 0. At Day 4, all groups received intracranial/intratumoral administration of AC3-YCD2 (V) vector at 2.4E6 TU/5 ul (Lot#T511019) or PBS buffer control.
AC3-yCD2 (V) (5 μL) was infused at 0.33 μL per minute (15 minutes, followed by a hold of 5 minutes) intracranially at the same coordinates as TU-2449 cells were injected.
From each brain, tumors were isolated and trimmed if large enough for multiple analyses (more than 0.05 g). Tumors sections for HPLC analysis were crushed in a 1.5 mL centrifuge tube using a plunger from a 1 mL syringe. Crushed samples were mixed with 150 uL RIPA buffer and vortexed vigorously for 10 minutes. Samples were spun at 4° C. at 20000 rcf for 10 minutes. Supernatants were removed and mixed thoroughly with 150 uL of 10% trichloroacetic acid and spun as above. […] Data was expressed in relative milli absorbance units (mAU) of peak area from the chromatograms.

With `Nc1nc(=O)[nH]cc1F` [5-FC, 5-fluorocytosine] the “5-FC and 5-FU HPLC signals in tumor” value was “detectable 5-FC signals but no signal for 5-FU”.
